Consider 1 compound from patent US20190008797A1, “ESTROGEN RECEPTOR ALPHA COLIGANDS, AND METHODS OF USE THEREOF” (priority 2016, published 2019).

The target of this assay is T1, hAR (Homo sapiens, UniProt P10275).
T1 construct: expressed in transfected cells; host or cells: U2OS
T1 sequence (P10275 1-920): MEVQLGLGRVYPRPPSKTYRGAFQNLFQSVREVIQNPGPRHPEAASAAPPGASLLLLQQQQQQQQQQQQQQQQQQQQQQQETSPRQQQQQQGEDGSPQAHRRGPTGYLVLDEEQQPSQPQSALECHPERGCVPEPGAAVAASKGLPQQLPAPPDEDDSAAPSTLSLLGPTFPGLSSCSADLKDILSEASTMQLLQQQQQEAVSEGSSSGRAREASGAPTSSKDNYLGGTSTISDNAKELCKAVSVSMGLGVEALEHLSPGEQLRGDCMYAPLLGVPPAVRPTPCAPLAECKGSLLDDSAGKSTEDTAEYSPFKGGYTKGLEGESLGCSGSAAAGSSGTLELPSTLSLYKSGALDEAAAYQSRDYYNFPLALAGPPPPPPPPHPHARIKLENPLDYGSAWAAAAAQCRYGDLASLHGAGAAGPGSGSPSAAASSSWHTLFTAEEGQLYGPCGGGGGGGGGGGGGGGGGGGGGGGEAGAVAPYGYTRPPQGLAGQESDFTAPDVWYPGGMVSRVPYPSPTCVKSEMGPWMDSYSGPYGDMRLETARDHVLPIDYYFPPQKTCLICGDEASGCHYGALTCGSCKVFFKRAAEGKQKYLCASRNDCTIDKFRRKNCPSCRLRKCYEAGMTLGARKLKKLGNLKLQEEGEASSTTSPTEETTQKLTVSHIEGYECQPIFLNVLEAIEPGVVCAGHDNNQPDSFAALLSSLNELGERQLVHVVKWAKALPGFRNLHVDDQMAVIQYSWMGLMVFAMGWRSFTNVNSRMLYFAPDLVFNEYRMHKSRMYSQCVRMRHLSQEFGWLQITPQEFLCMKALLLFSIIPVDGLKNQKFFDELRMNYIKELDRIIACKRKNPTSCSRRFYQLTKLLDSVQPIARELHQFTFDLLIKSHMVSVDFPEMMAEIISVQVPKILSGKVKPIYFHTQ
Description: TAT3-luciferase reporter, U2OS cells cotransfected with hAR. The assay is classed as cell-based. The conditions noted are these: 5 μM + 10 nM dihydrotestosterone, 24 hours. For orientation: A reporter such as luciferase makes a cellular process visible.

For the compound `O=C(/C=C/c1ccccc1)c1ccc(O)c(O)c1O` [2′, 3′, 4′-THC, 2′, 3′, 4′-trihydroxychalcone], the “synergy with receptor agonist” value was “no synergy”.
